{"source": "patent US4146622A", "about": "“Aziridinyl quinone anti-transplanted tumor agents” (priority 1977, dated 1979)", "key": {"lymphoid leukemia L1210 [1]": {"tested_on": "lymphoid leukemia L1210", "assay": "Intraperitoneal (IP) lymphoid leukemia L1210 transplanted mouse tumor test", "format": "in vivo, murine", "excerpt": "^(a) Day 1-9 treatment schedule (9 injections)\n^(b) Day 1,5,9 treatment schedule (3 injections)\n^(c) Day 1 only treatment schedule (1 injection)\n^(f) Percentage increase in life span of treated animals [(treated\nsurvival .div. control survival) × 100%] - 100%"}, "[2]": {"tested_on": "P388 lymphocytic leukemia", "assay": "Intraperitoneal (IP) lymphocytic leukemia P388 transplanted mouse tumor test", "format": "in vivo, murine", "conditions": "for OD (optimum dose): IP P388, QD1-9"}, "B16 melanocarcinoma": {"tested_on": "B16 melanocarcinoma", "assay": "Intraperitoneal B16 melanocarcinoma transplanted mouse tumor test", "format": "in vivo, murine", "conditions": "Table IX; B16, QD1-9, at OD"}, "lymphoid leukemia L1210 [3]": {"tested_on": "lymphoid leukemia L1210", "assay": "Intracerebral (IC) lymphoid leukemia L1210 test", "format": "in vivo, murine", "conditions": "for ILS (percentage increase in life span): IC L1210, QD1-9, at OD"}, "ependymoblastoma": {"tested_on": "ependymoblastoma", "assay": "Intracerebral (IC) ependymoblastoma (EM) brain tumor test", "format": "in vivo, murine", "conditions": "for OD (optimum dose): QD1-5", "excerpt": "^c Ic tumor implantation, ip QD1-5 treatment schedule.\n^g Number of animals alive per six test animals on day of termination\nof experiment (day 99 for expt 133 and day 60 for expt 136 and 144).\nA third IC transplanted mouse tumor model, the ependymoblastoma system, was also studied. This system requires intracerebral implantation of a solid tumor fragment while the IC L1210 and IC P388 systems utilize IC inoculated ascites tumor fluid. All three use IP drug treatment however. […] Cures (survivors from the group of six mice on the last day of the experiment) are indicated. Experiments 136 and 144 were terminated on day 60. Since the number of cures was about the same, the differences in T/C values in these two experiments reflect differences in the life span of the two different sets of control animals. Experiment 133 was terminated on day 99 with a resulting higher activity value.\nThe hydrophilic dihydroxypropylamino compound (No. 39), which was curative in the IP L1210 and P388 leukemia systems, was active but gave a large spread in ILS values (53-186%). […] Again, its hydrophilic character may present transport problems in this IC tumor system."}, "[4]": {"assay": "Room temperature water solubility", "format": "physicochemical", "method": "In the following examples, all melting points are uncorrected and were recorded on a Thomas-Hoover capillary melting point apparatus. Elemental analyses were performed by NIAMDD, NIH, Bethesda, Maryland. Fluoranil, ethyleneimine and 2l -methylethyleneimine were obtained commerically. […] New compounds were identified by nmr and ir spectroscopy. In the tetraamino derivatives, the methylene protons of the aziridine rings usually occurred as a singlet at δ2.0-2.2 in CDCl3 or DMSO-d6. This absorption appeared at δ2.40 (CDCl3) for compound 11. Carbonyl absorption frequencies (nujol mull) occurred in the range 1620-1640 cm^-1 for the tetraamino compounds. Satisfactory elemental analyses (+0.4% of calculated values) are indicated by elemental symbols in Table VII. Room temperature water solubilities were determined by the incremental addition (pipet) of water to a weighed amount of compound with shaking. The solubility values in Table VII must be considered as approximate."}, "[5]": {"tested_on": "IP ascites tumor systems (leukemia L1210 and P388)", "assay": "IP ascites tumor systems (leukemia L1210 and P388)", "format": "in vivo, murine", "from_the_text": "The criterion for minimum activity, %ILS, is defined here as follows: Intraperitoneal and intracerebral leukemia L1210 and intraperitoneal leukemia P388, 25%; intraperitoneal B16 melanoma and intracerebral ependymoblastoma, 40%. Consistent with NCI antitumor test protocols, intraperitoneal (IP) administration of the drug was employed with all five tumor systems investigated. Tumor implantation was IP in the systems designated IP leukemia L1210 and P388 as well as B16 melanoma. Intracerebral (IC) tumor implantation was utilized in the IC L1210 and ependymoblastoma tumor systems."}, "lymphoid leukemia L1210 [6]": {"tested_on": "lymphoid leukemia L1210", "conditions": "cited from earlier work; for antitumor activity, prior testing: L1210 system, prior/literature"}, "[7]": {"assay": "Octanol/H2O partition coefficient (log P)", "format": "physicochemical", "conditions": "Table VII; octanol/H2O", "excerpt": "^(b) Octanol/H2 O values determined by C. Hansch and M. Yamakawa"}, "[8]": {"conditions": "Table VIII, IP L1210, Day 1 only (1 injection)"}, "[9]": {"conditions": "Table VIII, IP L1210, QD1-9 (9 injections)"}, "[10]": {"conditions": "Table VIII, IP L1210, QD1-9, at OD"}, "[11]": {"conditions": "Table XI, per 6 test animals, day 30"}, "[12]": {"conditions": "Table IX, IP P388, QD1-9, at OD"}, "[13]": {"conditions": "Table X, IC ependymoblastoma, QD1-5, at OD"}, "[14]": {"conditions": "water, Table VII, room temperature, approximate, read-out: Approx. H2O Sol."}, "[15]": {"conditions": "Table VIII, IP L1210, Q4D(1,5,9) (3 injections)"}}, "note": "Values joined by “and” are separate entries in the source; they are usually repeats but may differ in a detail not shown here. Identical values can stand only once. “Also recorded” adds a separate entry of the source. Like-named read-outs stand apart in the source and are kept apart here."}
{"smiles": "NC1=C(N2CC2)C(=O)C(N)=C(N2CC2)C1=O", "note": "[Compound 33, 2,5-Dizairidinyl-3,6-diamino-1,4-benzoquinone]", "values": [{"measurement": "OD (optimum dose)", "setting": "lymphoid leukemia L1210 [1]; [8]", "value": "1.0 mg/kg/injection and 0.5 mg/kg/injection"}, {"measurement": "ILS (percentage increase in life span)", "setting": "lymphoid leukemia L1210 [1]; Table VIII, IP L1210, Q4D(1,5,9), at OD", "value": "161% and 124%"}, {"measurement": "animals alive per 6 test animals on day of termination", "setting": "lymphoid leukemia L1210 [1]; Table VIII, IP L1210, Q4D(1,5,9), at OD, day 30", "value": "3 and 2"}, {"measurement": "OD (optimum dose)", "setting": "lymphoid leukemia L1210 [1]; [9]", "value": "0.4 mg/kg/injection and 0.3 mg/kg/injection"}, {"measurement": "ILS (percentage increase in life span)", "setting": "lymphoid leukemia L1210 [1]; [10]", "value": "115% and 100%"}, {"measurement": "ILS (%) IP L1210", "setting": "lymphoid leukemia L1210 [1]; Table XI, outstanding activity", "value": 161, "unit": "%"}, {"measurement": "survivors (number in parentheses) IP L1210", "setting": "lymphoid leukemia L1210 [1]; [11]", "value": 3}, {"measurement": "OD (optimum dose)", "setting": "[2]; Table IX", "value": 0.2, "unit": "mg/kg/injection"}, {"measurement": "ILS (percentage increase in life span)", "setting": "[2]; [12]", "value": "171% and 156%"}, {"measurement": "animals alive per 6 test animals on day of termination", "setting": "[2]; Table IX, IP P388, QD1-9, at OD, day 30", "value": 1}, {"measurement": "survivors (number in parentheses) P388", "setting": "[2]; [11]", "value": 1}, {"measurement": "ILS (percentage increase in life span)", "setting": "B16 melanocarcinoma", "value": "31% and 19%"}, {"measurement": "antitumor activity", "setting": "lymphoid leukemia L1210 [3]; IC L1210", "value": "most active; also recorded: significant activity"}, {"measurement": "OD (optimum dose)", "setting": "lymphoid leukemia L1210 [3]; Table X, IC L1210, QD1-9", "value": 0.3, "unit": "mg/kg/injection"}, {"measurement": "ILS (percentage increase in life span)", "setting": "lymphoid leukemia L1210 [3]; Table X", "value": "60% and 59%"}, {"measurement": "ILS (%) IC L1210", "setting": "lymphoid leukemia L1210 [3]; Table XI, outstanding activity", "value": 60, "unit": "%"}, {"measurement": "antitumor activity", "setting": "ependymoblastoma; IC ependymoblastoma (EM)", "value": "among the most active materials"}, {"measurement": "OD (optimum dose)", "setting": "ependymoblastoma; Table X, IC ependymoblastoma", "value": 0.2, "unit": "mg/kg/injection"}, {"measurement": "ILS (percentage increase in life span)", "setting": "ependymoblastoma; [13]", "value": "215% and 177%"}, {"measurement": "animals alive per 6 test animals on day of termination", "setting": "ependymoblastoma; Table X, IC ependymoblastoma, QD1-5, at OD, day 60", "value": "4 and 6"}, {"measurement": "survivors (number in parentheses) EM", "setting": "ependymoblastoma; Table XI, per 6 test animals, day 60", "value": 6}, {"measurement": "solubility", "setting": "[4]", "value": "insoluble in any solvent; also recorded: exceptionally insoluble"}, {"measurement": "solubility", "setting": "[4]; [14]", "value": "< 100", "unit": "µg/mL"}, {"measurement": "antitumor activity", "setting": "[5]", "value": "active"}]}
{"smiles": "COC1=C(N2CC2)C(=O)C(OC)=C(N2CC2)C1=O", "note": "[Compound 28]", "values": [{"measurement": "antitumor activity, prior testing", "setting": "lymphoid leukemia L1210 [6]", "value": "intraperitoneal (IP) leukemia L1210 activity"}]}
{"smiles": "NC(=O)CNC1=C(N2CC2)C(=O)C(NCC(N)=O)=C(N2CC2)C1=O", "note": "[Compound 40]", "values": [{"measurement": "OD (optimum dose)", "setting": "lymphoid leukemia L1210 [1]; [8]", "value": 10.0, "unit": "mg/kg/injection"}, {"measurement": "ILS (percentage increase in life span)", "setting": "lymphoid leukemia L1210 [1]; Table VIII, IP L1210, Day 1 only, at OD", "value": "21% and 15%"}, {"measurement": "OD (optimum dose)", "setting": "lymphoid leukemia L1210 [1]; [15]", "value": 8.0, "unit": "mg/kg/injection"}, {"measurement": "OD (optimum dose)", "setting": "lymphoid leukemia L1210 [1]; [9]", "value": 10.0, "unit": "mg/kg/injection"}, {"measurement": "ILS (percentage increase in life span)", "setting": "lymphoid leukemia L1210 [1]; [10]", "value": "92% and 91%"}, {"measurement": "OD (optimum dose)", "setting": "[2]; Table IX", "value": 2.0, "unit": "mg/kg/injection"}, {"measurement": "ILS (percentage increase in life span)", "setting": "[2]; [12]", "value": "85% and 71%"}, {"measurement": "ILS (percentage increase in life span)", "setting": "B16 melanocarcinoma", "value": "37% and 22%"}, {"measurement": "ILS (percentage increase in life span)", "setting": "lymphoid leukemia L1210 [3]; Table X", "value": 16, "unit": "%"}, {"measurement": "OD (optimum dose)", "setting": "ependymoblastoma; Table X, IC ependymoblastoma", "value": "2.0 mg/kg/injection and 1.0 mg/kg/injection"}, {"measurement": "ILS (percentage increase in life span)", "setting": "ependymoblastoma; [13]", "value": "64% and 50%"}, {"measurement": "solubility", "setting": "[4]; [14]", "value": 500, "unit": "µg/mL"}]}
{"smiles": "O=C1C(N2CCOCC2)=C(N2CC2)C(=O)C(N2CCOCC2)=C1N1CC1", "note": "[Compound 46, 2,5-Diaziridinyl-3,6-dimorpholino-1,4-benzoquinone]", "values": [{"measurement": "OD (optimum dose)", "setting": "lymphoid leukemia L1210 [1]; [15]", "value": 6.0, "unit": "mg/kg/injection"}, {"measurement": "T - C (average weight change of test group minus control)", "setting": "lymphoid leukemia L1210 [1]; Table VIII, IP L1210, Q4D(1,5,9), at OD, day 5", "value": -2.6, "unit": "grams"}, {"measurement": "OD (optimum dose)", "setting": "[2]; Table IX", "value": "0.5 mg/kg/injection and 0.7 mg/kg/injection"}, {"measurement": "ILS (percentage increase in life span)", "setting": "[2]; [12]", "value": "52% and 48%"}, {"measurement": "ILS (percentage increase in life span)", "setting": "B16 melanocarcinoma", "value": "24% and 17%"}, {"measurement": "ILS (percentage increase in life span)", "setting": "ependymoblastoma; [13]", "value": "134% and 82%"}, {"measurement": "solubility", "setting": "[4]; [14]", "value": "< 100", "unit": "µg/mL"}, {"measurement": "log P", "setting": "[7]", "value": 0.52}]}
{"smiles": "O=C1C(Cl)=C(N2CC2)C(=O)C(Cl)=C1N1CC1", "note": "[Compound 4, 2,5-dichloro-3,6-diaziridinyl-1,4-benzoquinone]", "values": [{"measurement": "antitumor activity, prior testing", "setting": "lymphoid leukemia L1210 [6]", "value": "inactive"}]}
{"smiles": "CC(=O)NC1=C(Cl)C(=O)C(NC(C)=O)=C(Cl)C1=O", "note": "[Compound 20, 2,5-dichloro-3,5-acetylamino-1,4-benzoquinone]", "values": [{"measurement": "antitumor activity, prior testing", "setting": "lymphoid leukemia L1210 [6]", "value": "inactive"}]}
{"smiles": "O=C1C(N2CC2)=C(N2CC2)C(=O)C(N2CC2)=C1N1CC1", "note": "[tetraaziridinyl derivative]", "values": [{"measurement": "ILS", "setting": "lymphoid leukemia L1210 [6]; L1210 leukemia system, earlier evaluation", "value": 39, "unit": "%"}]}
